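Assay format: 96-well plates, 48-hour exposure. Here, GI50 denotes the concentration required for 50% inhibition of growth.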 Active and inactive are the calls of the source. Rule as the data show it: active = GI50 up to about 1.1 µM and inactive = higher.
Key:
Experiment in all cases: growth of human tumour cells (NCI), 48 h
[1] = system: SK-MEL-5
[2] = system: SF-295
[3] = system: NCI/ADR-RES
[4] = system: CCRF-CEM
[5] = system: NCI-H522
[6] = system: SK-MEL-2
[7] = system: HCT-15
[8] = system: M14
[9] = system: Hs-578T
[10] = system: MOLT-4
[11] = system: HOP-92
[12] = system: BT-549
[13] = system: OVCAR-8
[14] = system: MDA-MB-231
[15] = system: SF-268
[16] = system: A498
[17] = system: EKVX
[18] = system: RPMI-8226
[19] = system: SR
[20] = system: Malme-3M

SMILES | GI50 [1] | GI50 [2] | GI50 [3] | GI50 [4] | GI50 [5] | GI50 [6] | GI50 [7] [µM] | GI50 [8] | GI50 [9] | GI50 [10] | GI50 [11] | GI50 [12] | GI50 [13] | GI50 [14] | GI50 [15] | GI50 [16] | GI50 [17] | GI50 [18] | GI50 [19] | GI50 [20]
Cc1ccsc1C(=S)Nc1ccc(Cl)c(C(=O)OC(C(C)C)C(C)C)c1 | 15.4 µM (inactive) | 21.9 µM (inactive) | 13.6 µM (inactive) | 5.62 µM (inactive) | 11.4 µM (inactive) | 11.7 µM (inactive) | 23.6 | 17.9 µM (inactive) | 39.4 µM (inactive) | 5.51 µM (inactive) | 16.3 µM (inactive) | 3.38 µM (inactive) | 21.3 µM (inactive) | 17.2 µM (inactive) | 40.8 µM (inactive) | 27.2 µM (inactive) | 23.2 µM (inactive) | 10.6 µM (inactive) | – | –
CN(C)CCCN1c2ccccc2CCc2cc([N+](=O)[O-])ccc21 | 15.8 µM (inactive) | 18.9 µM (inactive) | 26.9 µM (inactive) | – | 24.5 µM (inactive) | 21.1 µM (inactive) | 34.4 | 18.9 µM (inactive) | 31.8 µM (inactive) | 26.2 µM (inactive) | – | 22.4 µM (inactive) | 24.6 µM (inactive) | 22.2 µM (inactive) | 20 µM (inactive) | 25.5 µM (inactive) | 33.9 µM (inactive) | 21.5 µM (inactive) | 32.1 µM (inactive) | 18.8 µM (inactive)
Cc1ccc(S(=O)(=O)Nn2c(O)c(C#N)c(-c3ccc(N(C)C)cc3)c(C#N)c2=O)cc1 | 26.2 µM (inactive) | 0.023 µM (active) | > 50 µM (inactive) | > 50 µM (inactive) | > 50 µM (inactive) | > 50 µM (inactive) | > 50 | – | > 50 µM (inactive) | > 50 µM (inactive) | > 50 µM (inactive) | > 50 µM (inactive) | > 50 µM (inactive) | > 50 µM (inactive) | > 50 µM (inactive) | > 50 µM (inactive) | > 50 µM (inactive) | 9.75 µM (inactive) | – | > 50 µM (inactive)
CC12CCC(C(=O)n3c1nc1ccccc13)C(C)(C)O2 (stereo unspecified) | 49 µM (inactive) | > 100 µM (inactive) | > 100 µM (inactive) | > 100 µM (inactive) | 47.6 µM (inactive) | > 100 µM (inactive) | > 100 | > 100 µM (inactive) | 16.3 µM (inactive) | > 100 µM (inactive) | > 100 µM (inactive) | > 100 µM (inactive) | > 100 µM (inactive) | > 100 µM (inactive) | > 100 µM (inactive) | – | > 100 µM (inactive) | > 100 µM (inactive) | > 100 µM (inactive) | > 100 µM (inactive)
CC1CC(C#N)=C2NCCCCN2C1=O (stereo unspecified) | > 100 µM (inactive) | > 100 µM (inactive) | > 100 µM (inactive) | > 100 µM (inactive) | > 100 µM (inactive) | > 100 µM (inactive) | > 100 | > 100 µM (inactive) | > 100 µM (inactive) | > 100 µM (inactive) | – | > 100 µM (inactive) | > 100 µM (inactive) | > 100 µM (inactive) | > 100 µM (inactive) | – | > 100 µM (inactive) | > 100 µM (inactive) | > 100 µM (inactive) | > 100 µM (inactive)
CC1CNC(c2ccc(CN3CCC(C4CCN(Cc5ccc(C6=NC(C)CN6)cc5)CC4)CC3)cc2)=N1 (stereo unspecified) | 36.2 µM (inactive) | 17 µM (inactive) | 34.4 µM (inactive) | 13.9 µM (inactive) | 15 µM (inactive) | 19.1 µM (inactive) | 27.5 | 20.2 µM (inactive) | 18.6 µM (inactive) | 19.7 µM (inactive) | 75.7 µM (inactive) | > 100 µM (inactive) | 29.6 µM (inactive) | 17.7 µM (inactive) | 22.4 µM (inactive) | 29.2 µM (inactive) | 21.7 µM (inactive) | 19.5 µM (inactive) | – | 23.9 µM (inactive)
O=C1CCCc2cc3c(cc21)CCC3C(=O)O (stereo unspecified) | > 100 µM (inactive) | > 100 µM (inactive) | > 100 µM (inactive) | > 100 µM (inactive) | > 100 µM (inactive) | > 100 µM (inactive) | > 100 | > 100 µM (inactive) | > 100 µM (inactive) | > 100 µM (inactive) | – | > 100 µM (inactive) | > 100 µM (inactive) | > 100 µM (inactive) | > 100 µM (inactive) | – | > 100 µM (inactive) | > 100 µM (inactive) | > 100 µM (inactive) | > 100 µM (inactive)
CCCC(=O)N(C)/N=N/c1ccc(C(=O)OCC)cc1 | > 100 µM (inactive) | > 100 µM (inactive) | – | > 100 µM (inactive) | 52 µM (inactive) | > 100 µM (inactive) | > 100 | > 100 µM (inactive) | > 100 µM (inactive) | > 100 µM (inactive) | > 100 µM (inactive) | > 100 µM (inactive) | > 100 µM (inactive) | > 100 µM (inactive) | > 100 µM (inactive) | 81.7 µM (inactive) | 15.2 µM (inactive) | > 100 µM (inactive) | > 100 µM (inactive) | > 100 µM (inactive)
CCN(CC)C(=S)N/N=C/c1cc(OC)ccc1O | 6.22 µM (inactive) | 4.11 µM (inactive) | 2.58 µM (inactive) | 0.895 µM (active) | 3.85 µM (inactive) | 74.1 µM (inactive) | 1.36 | 3.69 µM (inactive) | 69.8 µM (inactive) | 2.09 µM (inactive) | – | 7.05 µM (inactive) | 4.51 µM (inactive) | 30.7 µM (inactive) | 1.87 µM (inactive) | 2.02 µM (inactive) | 10.4 µM (inactive) | – | 2.76 µM (inactive) | 4.23 µM (inactive)
Cc1ccc2oc3c(c(Br)c(Br)n3C)c(=O)c2c1 | 27.7 µM (inactive) | 20.4 µM (inactive) | 20.4 µM (inactive) | > 100 µM (inactive) | 46.2 µM (inactive) | 25.8 µM (inactive) | > 100 | 31.3 µM (inactive) | 18.5 µM (inactive) | > 100 µM (inactive) | 18.1 µM (inactive) | > 100 µM (inactive) | 17.4 µM (inactive) | 20.3 µM (inactive) | 29.4 µM (inactive) | 20.9 µM (inactive) | 10.4 µM (inactive) | > 100 µM (inactive) | – | 24.7 µM (inactive)
COc1ccc2c(c1)[C@@]13CCCC[C@H]1[C@@H](C2)N(C)CC3=O | 22.6 µM (inactive) | 64.9 µM (inactive) | 26.9 µM (inactive) | 19.2 µM (inactive) | 18.3 µM (inactive) | 25.2 µM (inactive) | 17.8 | 16.1 µM (inactive) | 19.2 µM (inactive) | 19.7 µM (inactive) | 13.6 µM (inactive) | 17.4 µM (inactive) | 19.3 µM (inactive) | 18.5 µM (inactive) | 17.2 µM (inactive) | – | 18.5 µM (inactive) | 25.6 µM (inactive) | 12.4 µM (inactive) | 18.5 µM (inactive)
CC(=O)NC1C(OCC(=O)NC(C)C(=O)NC(CCC(=O)NCCCCCNc2ccc([N+](=O)[O-])c3[nH]c4ccccc4c(=O)c23)C(N)=O)C(O)C(CO)OC1(C)OCc1ccccc1 (stereo unspecified) | > 50 µM (inactive) | 45.4 µM (inactive) | > 50 µM (inactive) | 3.75 µM (inactive) | > 50 µM (inactive) | > 50 µM (inactive) | > 50 | > 50 µM (inactive) | 19.5 µM (inactive) | 13.3 µM (inactive) | – | > 50 µM (inactive) | > 50 µM (inactive) | 12 µM (inactive) | 14.5 µM (inactive) | > 50 µM (inactive) | > 50 µM (inactive) | 0.005 µM (active) | – | 12 µM (inactive)
[N-]=[N+]=CC(=O)C1CCN(c2ccccc2)C1=O (stereo unspecified) | > 10 µM (inactive) | > 10 µM (inactive) | > 10 µM (inactive) | > 10 µM (inactive) | – | > 10 µM (inactive) | > 10 | > 10 µM (inactive) | > 10 µM (inactive) | > 10 µM (inactive) | – | > 10 µM (inactive) | > 10 µM (inactive) | > 10 µM (inactive) | > 10 µM (inactive) | > 10 µM (inactive) | > 10 µM (inactive) | > 10 µM (inactive) | > 10 µM (inactive) | > 10 µM (inactive)
Clc1ccc(-c2nnc(-c3c(Cl)c(Cl)c(Cl)c(Cl)c3-c3nc4ccccc4[nH]3)o2)cc1 | 40.4 µM (inactive) | 48.5 µM (inactive) | 47.4 µM (inactive) | 59.4 µM (inactive) | 47.9 µM (inactive) | > 100 µM (inactive) | 55.3 | 69.8 µM (inactive) | > 100 µM (inactive) | 27.2 µM (inactive) | 31.7 µM (inactive) | 70.1 µM (inactive) | 48.2 µM (inactive) | – | > 100 µM (inactive) | 82.8 µM (inactive) | 54.3 µM (inactive) | 31.8 µM (inactive) | 34.3 µM (inactive) | > 100 µM (inactive)
COc1cc2oc(-c3ccc(O)cc3)cc(=O)c2c(OC)c1O | 49.4 µM (inactive) | 62.5 µM (inactive) | > 100 µM (inactive) | > 100 µM (inactive) | 29.8 µM (inactive) | > 100 µM (inactive) | 92.7 | > 100 µM (inactive) | 58.5 µM (inactive) | > 100 µM (inactive) | 27.9 µM (inactive) | 67.9 µM (inactive) | 49.7 µM (inactive) | 46.9 µM (inactive) | 37.8 µM (inactive) | – | > 100 µM (inactive) | 89.9 µM (inactive) | – | > 100 µM (inactive)

Reference: ChEMBL document CHEMBL1201862, “PubChem BioAssay data set” (2004)
